This note sets out measurements from patent US10125138B2, “Triazolotriazinone derivatives having activity a s herbicides” (Syngenta Participations AG, priority 2015, dated 2018).

Holding throughout (assay type): in vivo
Common to all, as to details: 1000 g/h, evaluated after 13 days, five point scale

In experiment [1] the test system is Setaria faberi (SETFA). Description: Post-emergence glasshouse herbicide test, Setaria faberi. The procedure: (§1) Seeds of a variety of test species are sown in standard soil in pots (Lolium perenne (LOLPE), Solanum nigrum (SOLNI), Amaranthus retoflexus (AMARE), Setaria faberi (SETFA), Echinochloa crus-galli (ECHCG), Ipomoea hederacea (IPOHE)). After cultivation for one day (pre-emergence) or after 8 days cultivation (post-emergence) under controlled conditions in a glasshouse (at 24/16° C., day/night; 14 hours light; 65% humidity), the plants are sprayed with an aqueous spray solution derived from the formulation of the technical active ingredient in acetone/water (50:50) solution containing 0.5% Tween 20 (polyoxyethelyene sorbitan monolaurate, CAS RN 9005-64-5). […] The test plants are then grown in a glasshouse under controlled conditions in a glasshouse (at 24/16° C., day/night; 14 hours light; 65% humidity) and watered twice daily. After 13 days for pre and post-emergence, the test is evaluated for the percentage damage caused to the plant. The biological activities are shown in the following table on a five point scale (5=80-100%; 4=60-79%; 3=40-59%; 2=20-39%; 1=0-19%).

In experiment [2] the test system is Echinochloa crus-galli (ECHCG). Description: Pre-emergence glasshouse herbicide test, Echinochloa crus-galli. The procedure: as §1
Experiment [3] concerns Amaranthus retoflexus (AMARE). The experiment can be described thus: Post-emergence glasshouse herbicide test, Amaranthus retoflexus. The procedure: as §1
In experiment [4] the test system is Lolium perenne (LOLPE). Description: Pre-emergence glasshouse herbicide test, Lolium perenne. The procedure:
as §1

Experiment [5] relates to Solanum nigrum (SOLNI). The experiment can be described thus: Post-emergence glasshouse herbicide test, Solanum nigrum. The procedure: (§2) Seeds of a variety of test species are sown in standard soil in pots (Lolium perenne (LOLPE), Solanum nigrum (SOLNI), Amaranthus retoflexus (AMARE), Setaria faberi (SETFA), Echinochloa crus-galli (ECHCG), Ipomoea hederacea (IPOHE)). After cultivation for one day (pre-emergence) or after 8 days cultivation (post-emergence) under controlled conditions in a glasshouse (at 24/16° C., day/night; 14 hours light; 65% humidity), the plants are sprayed with an aqueous spray solution derived from the formulation of the technical active ingredient in acetone/water (50:50) solution containing 0.5% Tween 20 (polyoxyethelyene sorbitan monolaurate, CAS RN 9005-64-5). Compounds are applied at 1000 g/h. The test plants are then grown in a glasshouse under controlled conditions in a glasshouse (at 24/16° C., day/night; 14 hours light; 65% humidity) and watered twice daily. After 13 days for pre and post-emergence, the test is evaluated for the percentage damage caused to the plant. The biological activities are shown in the following table on a five point scale (5=80-100%; 4=60-79%; 3=40-59%; 2=20-39%; 1=0-19%).

In experiment [6] the test system is Solanum nigrum (SOLNI). Description: Pre-emergence glasshouse herbicide test, Solanum nigrum. The procedure: as §2
Experiment [7] relates to Echinochloa crus-galli (ECHCG). The experiment can be described thus: Post-emergence glasshouse herbicide test, Echinochloa crus-galli. The procedure: as §1
Experiment [8] deals with Amaranthus retoflexus (AMARE). The experiment can be described thus: Pre-emergence glasshouse herbicide test, Amaranthus retoflexus. The procedure:
as §1

The test system of experiment [9] is Setaria faberi (SETFA). Description: Pre-emergence glasshouse herbicide test, Setaria faberi. The procedure: as §1
Experiment [10] concerns Ipomoea hederacea (IPOHE). Description: Pre-emergence glasshouse herbicide test, Ipomoea hederacea. The procedure: as §1
The test system of experiment [11] is Lolium perenne (LOLPE). Description: Post-emergence glasshouse herbicide test, Lolium perenne. The procedure: as §1
Experiment [12] relates to Ipomoea hederacea (IPOHE). The experiment can be described thus: Post-emergence glasshouse herbicide test, Ipomoea hederacea. The procedure:
as §1

SMILES strings stand for the structures.

Turning to `CCCn1nnnc1NC(=O)c1nn2cnn(-c3ccccc3C)c2nc1=O` [Compound 1.028], the “percentage damage caused to the plant, POST Application SETFA” value in experiment [1] was 5 (5=80-100%). Besides, the “percentage damage caused to the plant, PRE Application ECHCG” value in experiment [2] is given as 5 (5=80-100%). In addition, in [3], the “percentage damage caused to the plant, POST Application AMARE” value is 5 (5=80-100%). Also, the “percentage damage caused to the plant, PRE Application LOLPE” value in experiment [4] was 5 (5=80-100%). For the same compound, the “percentage damage caused to the plant, POST Application SOLNI” value in [5] was 5 (5=80-100%). In addition, the “percentage damage caused to the plant, PRE Application SOLNI” value in experiment [6] is listed as 5 (5=80-100%). Further, the “percentage damage caused to the plant, POST Application ECHCG” value in [7] is reported as 5 (5=80-100%). For the same compound, the “percentage damage caused to the plant, PRE Application AMARE” value in [8] is on record as 5 (5=80-100%). Further, the “percentage damage caused to the plant, PRE Application SETFA” value in experiment [9] is given as 5 (5=80-100%). In addition, the “percentage damage caused to the plant, PRE Application IPOHE” value in experiment [10] is reported as 5 (5=80-100%). Further, the “percentage damage caused to the plant, POST Application LOLPE” value in [11] is listed as 5 (5=80-100%). Moreover, the “percentage damage caused to the plant, POST Application IPOHE” value in experiment [12] is 5 (5=80-100%).
Take `O=C1CCCC(=O)C1C(=O)c1nn2cnn(-c3ccc(F)cc3)c2nc1=O` [Compound 4.002]: in [1], the “percentage damage caused to the plant, POST Application SETFA” value is 5 (5=80-100%). In addition, in experiment [2], the “percentage damage caused to the plant, PRE Application ECHCG” value is 5 (5=80-100%). In experiment [3], the “percentage damage caused to the plant, POST Application AMARE” value is 5 (5=80-100%). For the same compound, in experiment [4], the “percentage damage caused to the plant, PRE Application LOLPE” value was 4 (4=60-79%). The “percentage damage caused to the plant, POST Application SOLNI” value in experiment [5] was 5 (5=80-100%). Moreover, the “percentage damage caused to the plant, PRE Application SOLNI” value in experiment [6] is reported as 5 (5=80-100%). Further, the “percentage damage caused to the plant, POST Application ECHCG” value in experiment [7] is listed as 5 (5=80-100%). The “percentage damage caused to the plant, PRE Application AMARE” value in experiment [8] is reported as 5 (5=80-100%). In experiment [9], the “percentage damage caused to the plant, PRE Application SETFA” value is reported as 5 (5=80-100%). For the same compound, in experiment [10], the “percentage damage caused to the plant, PRE Application IPOHE” value was 5 (5=80-100%). For the same compound, the “percentage damage caused to the plant, POST Application LOLPE” value in experiment [11] is on record as 5 (5=80-100%). For the same compound, the “percentage damage caused to the plant, POST Application IPOHE” value in experiment [12] is 5 (5=80-100%).
Regarding `Cn1nnnc1NC(=O)c1nn2cnn(-c3ccc(F)cc3)c2nc1=O` [Compound 1.002], the “percentage damage caused to the plant, POST Application SETFA” value in experiment [1] is 5 (5=80-100%). The “percentage damage caused to the plant, PRE Application ECHCG” value in [2] is given as 5 (5=80-100%). For the same compound, the “percentage damage caused to the plant, POST Application AMARE” value in [3] is reported as 5 (5=80-100%). The “percentage damage caused to the plant, PRE Application LOLPE” value in experiment [4] was 4 (4=60-79%). Moreover, the “percentage damage caused to the plant, POST Application SOLNI” value in [5] is reported as 5 (5=80-100%). Also, in experiment [6], the “percentage damage caused to the plant, PRE Application SOLNI” value is 5 (5=80-100%). Moreover, the “percentage damage caused to the plant, POST Application ECHCG” value in experiment [7] is 5 (5=80-100%). In addition, the “percentage damage caused to the plant, PRE Application AMARE” value in [8] is given as 5 (5=80-100%). Besides, in experiment [9], the “percentage damage caused to the plant, PRE Application SETFA” value is recorded as 5 (5=80-100%). The “percentage damage caused to the plant, PRE Application IPOHE” value in [10] is recorded as 5 (5=80-100%). Also, the “percentage damage caused to the plant, POST Application LOLPE” value in experiment [11] is recorded as 5 (5=80-100%). Further, the “percentage damage caused to the plant, POST Application IPOHE” value in experiment [12] is 5 (5=80-100%).
`Cc1ccccc1-n1ncn2nc(C(=O)Nc3nnnn3C)c(=O)nc12` [Compound 1.030]: in [1], the “percentage damage caused to the plant, POST Application SETFA” value is given as 5 (5=80-100%). The “percentage damage caused to the plant, PRE Application ECHCG” value in experiment [2] is recorded as 5 (5=80-100%). For the same compound, the “percentage damage caused to the plant, POST Application AMARE” value in experiment [3] is reported as 5 (5=80-100%). Moreover, the “percentage damage caused to the plant, PRE Application LOLPE” value in [4] is 4 (4=60-79%). In addition, in experiment [5], the “percentage damage caused to the plant, POST Application SOLNI” value is 5 (5=80-100%). Moreover, the “percentage damage caused to the plant, PRE Application SOLNI” value in [6] is 5 (5=80-100%). The “percentage damage caused to the plant, POST Application ECHCG” value in experiment [7] is reported as 5 (5=80-100%). Besides, the “percentage damage caused to the plant, PRE Application AMARE” value in experiment [8] was 5 (5=80-100%). For the same compound, the “percentage damage caused to the plant, PRE Application SETFA” value in [9] is recorded as 5 (5=80-100%). Besides, in experiment [10], the “percentage damage caused to the plant, PRE Application IPOHE” value is reported as 5 (5=80-100%). Further, the “percentage damage caused to the plant, POST Application LOLPE” value in experiment [11] was 4 (4=60-79%). The “percentage damage caused to the plant, POST Application IPOHE” value in experiment [12] is on record as 5 (5=80-100%).
